Experiments:
[1] = test system: erythropoietic progenitor cells; details: in vitro cell culture, presence of hematopoietic stimulating hormones; Table 1; cited from earlier work
[2] = general knowledge; cited from earlier work
[3] = test system: late erythrocytic progenitor cells (CFU-e); test: Differentiation and proliferation of late erythrocytic progenitor cells (CFU-e), cluster colony formation; assay type: cell-based, mouse (BDF1-strain); details: 20 μg/ml, Runs 2 to 4; for Number of colonies formed in the dolichols-added group (CFU-e): 2 days, erythropoietin 0.25 unit, mean ± S.E., 6 replicas, solvent controls 124.2 ± 2.7, 246.0 ± 5.0, 124.7 ± 2.9
Protocol: (§1) The mouse bone marrow cells used in the following experiments were all prepared as follows:
(§2) BDF1 -strain mice (female, 8 to 10 weeks old) were killed by cervical dislocation, and the femurs were collected under sterile conditions. The bone marrow cells were flushed out from the femurs with α-medium, and formed into a single cell suspension by repeated aspiration with a 26-gauge needle fitted to a 1 ml-syringe. The cells were washed two times with α-medium by centrifugation at 200×G for 5 minutes and used in the following experiments.
In accordance with the method of Murphy et al. mentioned above, mouse bone marrow cells were plated at 2.5×10^4 nuclear cells into 0.5 ml of α-medium containing 0.25 unit of erythropoietin, 30% fetal bovine serum, 1% bovine serum albumin, 0.1 mM 2-mercaptoethanol and 0.4% methyl cellulose with 10 μg of dolichol dissolved in 1 μl of ethanol, 10 μg of dolichyl phosphate dispersed in 0.5 μl of dimethyl sulfoxide, 1 μl of ethanol or 0.5 μl of dimethyl sulfoxide in a 16 mm.phi. tissue culture plate, and incubated at 37° C. in a humidified atmosphere of 5% carbon dioxide in air for 2 days. The number of cluster colonies consisting of 8 to 64 erythroblasts derived from CFU-e in the tissue culture plate was scored with an inverted microscope. The experiment was carried out by 6 replica assays for each group, and the average number of the colonies formed was determined. The results are shown in Table 3, in the rows of Runs 2 to 4.

sea urchin embryos = details: compactin added to the culture of the embryos; cited from earlier work
[4] = test system: dolichol biosynthesis in spleen; details: phenylhydrazine subcutaneous (induced anemia); cited from earlier work
[5] = test system: early erythrocytic progenitor cells (BFU-e); test: Differentiation and proliferation of early erythrocytic progenitor cells (BFU-e), burst colony formation; assay type: cell-based, mouse (BDF1-strain); details: 20 μg/ml, Run 1
Protocol: as §1, §2
In accordance with the method of Murphy et al. (In Vitro Aspects of Erythropoiesis, page 262, Sringer-Verlag, 1978), mouse bone marrow cells were plated at 2×10^5 nuclear cells into 1 ml of α-medium containing 1 unit of erythropoietin, 30% fetal bovine serum, 1% bovine serum albumin, 0.1 mM 2-mercaptoethanol and 0.8% methyl cellulose with 20 μg of dolichyl phosphate dispersed in 1 μl of dimethyl sulfoxide or 1 μl of dimethyl sulfoxide in a 35 mm.phi. tissue culture plate, and incubated at 37° C. in a humidified atmosphere of 5% carbon dioxide in air for 9 days. The number of burst colonies consisting of more than 500 erythroblasts derived from BFU-e in the tissue culture plate was scored with an inverted microscope. The experiment was carried out by 6 replica assays for each group, and the average number of the colonies formed was determined.

[6] = test system: granulocyte-macrophage progenitor cells (CFU-c); test: Differentiation and proliferation of granulocyte-macrophage progenitor cells (CFU-c), colony formation; assay type: cell-based, mouse (BDF1-strain); details: printed 20 g/ml (method: 20 μg in 1 ml), Run 5
Protocol: as §1, §2
In accordance with the method of Worton et al. [R. G. Worton et al., J. Cell Physiol., 74, 171 (1969)], mouse bone marrow cells were plated at 1×10^5 nuclear cells into 1 ml of α-medium containing 10% L cell-conditioned medium as source of colony stimulating factor, 20% fetal bovine serum and 0.8% methyl cellulose with 20 μg of dolichyl phosphate dispersed in 1 μl of dimethyl sulfoxide or 1 μl of dimethyl sulfoxide in a 35 mm.phi. tissue culture plate, and incubated at 37° C. in a humidified atmosphere of 5% carbon dioxide in air for 7 days. The number of colonies consisting of more than 50 cells (granulocytecolonies, macrophage colonies or their mixed colonies) derived from […] was scored with an inverted microscope. The experiment was carried out by 6 replica assays for each group, and the average number of the colonies formed was determined.

erythropoiesis = test: Erythropoiesis in vivo, 59Fe incorporation in hereditarily anemic mice (Run 7); set-up: species or system mouse (WBB6 F1-W/Wv-strain); details: 250 mg/kg once i.p.
Protocol: Phenylhydrazine was administered to normal mice and hereditarily anemic mice to induce severe hemolytic anemia. Then, the rate of erythropoiesis during recovering of anemia was determined by measuring the rate of radioactive iron (^59 Fe) incorporation into newly formed red blood cells [P. M. Cotes, D. R. Bangham, Nature (London), 191, 1067 (1961)]. The testing method and results are described below.
Dolichyl phosphate in a dose of 250 mg/kg (0.2 ml of an emulsion obtained by emulsifying […] of dolichyl phosphate and 25 mg of sesame oil in 1 ml of a 1% aqueous solution of sodium carboxymethyl cellulose per 20 g of the body weight) was intraperitoneally administered to hereditarily anemic WBB6 F1 -W/Wv-strain mice (6 weeks old, female) on the 1st day of the experiment. A 1% aqueous solution of sodium carboxymethyl cellulose was intraperitoneally administered (0.2 ml/20 g of body weight) to a control group. On the 2nd day, the mice in each group were subcutaneously injected with phenylhydrazine hydrochloride in a dose of 60 mg/kg. […] On the 5th day, 0.5 ml of the whole blood was taken from each mouse, and the ^59 Fe incorporation rates during the period of 48 hours were measured as in Run 6. The experiment was carried out on 6 mice in each group, and the average value of the incorporation rates was calculated.

mice = test: Acute toxicity of dolichyl phosphate in mice; assay type: in vivo, mouse (BDF1-strain); details: 1000 mg/kg and 2000 mg/kg i.p.; 2nd day of administration
Protocol: (2) Dolichyl phosphate synthesized in Referential Example 3 below was dissolved in the same amount of sesame oil, and added to a 1% aqueous solution of sodium carboxy methyl cellulose so that the concentration of dolichyl phosphate reached 5% V/V. The resulting emulsion was used in the test.
BDF1 -strain mice (20-23 g, female), 6 per group, were used.

Molecule: C[C@@H]1C[C@H]2[C@@H]3CCC4=CC(=O)C=C[C@]4(C)[C@@]3(F)[C@@H](O)C[C@]2(C)[C@@]1(O)C(=O)CO [Dexamethasone]
- Effect on colony formation of erythropoietic progenitor cells [1]: .uparw.
- Side-effects [2]: clinically undesirable side-effects such as electrolytic disorders, hypertension, peptic ulcer, diabetes, liver impediments, and masculinization

Molecule: CC(C)=CCC/C(C)=C/CC/C(C)=C/CC/C(C)=C\CC/C(C)=C\CC/C(C)=C\CC/C(C)=C\CC/C(C)=C\CC/C(C)=C\CC/C(C)=C\CC/C(C)=C\CC/C(C)=C\CC/C(C)=C\CC/C(C)=C\CC/C(C)=C\CC/C(C)=C\CC/C(C)=C\CC/C(C)=C\CC[C@H](C)CCO [Dolichol (n = 15)]
- Number of colonies formed in the dolichols-added group (CFU-e) [3]: 293.0 ± 6.2
- activation at 20 µg/mL ([3]; Mus musculus, 48 h, vs solvent-added control group, read-out: Percent increase (%) of colony formation (CFU-e)): 19.1%

Molecule: CC[C@H](C)C(=O)O[C@H]1CCC=C2C=C[C@H](C)[C@H](CC[C@@H]3C[C@@H](O)CC(=O)O3)[C@H]21 [compactin]
- Differentiation of sea urchin embryos (sea urchin embryos): did not occur

Molecule: NNc1ccccc1 [phenylhydrazine, reference compound]
- Rate of dolichol biosynthesis in spleen [4]: greatly increased

Molecule: Growth hormone: hormone named in Table 1
- Effect on colony formation of erythropoietic progenitor cells [1]: .uparw.

Molecule: Prostaglandin E
- Effect on colony formation of erythropoietic progenitor cells [1]: .uparw.

Molecule: Thyroid hormone
- Effect on colony formation of erythropoietic progenitor cells [1]: .uparw.

Molecule: dolichyl phosphate
- Number of colonies formed in the dolichols-added group (BFU-e) ([5]; 9 days, erythropoietin 1 unit, mean ± S.E., 6 replicas, solvent control 73.7 ± 3.4): 99.5 ± 2.4
- Percent increase (%) of colony formation (BFU-e) ([5]; vs solvent-added control group): +35.0%
- Number of colonies formed in the dolichols-added group (CFU-e) [3]: 166.7 ± 2.4
- Percent increase (%) of colony formation (CFU-e) ([3]; vs solvent-added control group): +33.7%
- Number of colonies formed in the dolichols-added group (CFU-c) ([6]; 7 days, mean ± S.E., 6 replicas, solvent control 256.8 ± 4.3): 295.3 ± 4.9
- Percent increase (%) of colony formation (CFU-c) ([6]; vs solvent-added control group): +15.0%
- 59Fe incorporation rate (%), dolichol administered group (erythropoiesis; 48 hours, control group 21.4): 23.1%
- Erythropoiesis enhancing ratio (%) (erythropoiesis; percent increase of 59Fe incorporation rate vs control): +7.9%
- Mortality (mice): no case of death in all of the mice tested

B1: Human chorionic somatomammotropin: hormone named in Table 1 (protein, UniProt P0DML2 27-217, looked up)
Chorionic somatomammotropin …: VQTVPLSRLFDHAMLQAHRAHQLAIDTYQEFEETYIPKDQKYSFLHDSQTSFCFSDSIPTPSNMEETQQKSNLELLRISLLLIESWLEPVRFLRSMFANNLVYDTSDSDDYHLLKDLEEGIQTLMGRLEDGSRRTGQILKQTYSKFDTNSHNHDALLKNYGLLYCFRKDMDKVETFLRMVQCRSVEGSCGF
- Effect on colony formation of erythropoietic progenitor cells [1]: .uparw.

From patent publication US4812443A, “Methods for enhancing differentiation and proliferation of hematopoietic progenitor cells” (Kuraray Co., Ltd., priority 1984, dated 1989)
